Publication PMC6934184, “Selective DNA-PKcs inhibition extends the therapeutic index of localized radiotherapy and chemotherapy” (The Journal of Clinical Investigation, 2019)

Target: T1, STK17B (DRAK2) (Homo sapiens, UniProt O94768)
T1 construct: purchased Thermo Fisher Scientific (Life Technologies) SelectScreen
Assay: SelectScreen LanthaScreen
Type: binding
Settings: read-out: % displacement
In short: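 NU5455 was profiled across the SelectScreen Broad panel of kinase activity and binding assays. Z'LYTE reactions such as CSF1R ran at apparent Km ATP, while the Adapta CAMK1 assay used ATP listed as 10. Values are given as percent.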

T1 sequence (O94768 whole entry): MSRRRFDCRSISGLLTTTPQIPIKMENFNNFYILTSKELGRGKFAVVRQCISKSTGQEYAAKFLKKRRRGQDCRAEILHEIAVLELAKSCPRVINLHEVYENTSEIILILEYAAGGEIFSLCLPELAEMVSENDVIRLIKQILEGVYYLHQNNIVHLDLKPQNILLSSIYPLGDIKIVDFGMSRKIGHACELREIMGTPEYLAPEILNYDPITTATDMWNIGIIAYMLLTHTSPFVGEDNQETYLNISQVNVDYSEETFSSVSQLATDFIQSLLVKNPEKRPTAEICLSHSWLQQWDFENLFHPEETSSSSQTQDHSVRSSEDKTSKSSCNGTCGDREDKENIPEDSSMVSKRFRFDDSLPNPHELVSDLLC

CN(C(=O)CN1CCOCC1)c1ccc2sc3c(-c4cccc5c(=O)cc(N6CC7CCC(C6)O7)oc45)cccc3c2c1 [NU5455]
inhibition at 1 µM: 2.7%
